Source: patent publication EP4692094A1 (Beijing Konruns Pharmaceutical Co., Ltd., priority 2023, dated 2024)

Key:
Assay type in all cases: in vitro ADME
[1] = Assay for plasma protein binding rate (equilibrium dialysis), rat plasma; conditions: dialysis 6 h at 37 °C, read-out: Rat (Fu%)
Method: 1.1 Preparation of compounds: The compounds prepared in the examples were each dissolved in dimethylsulfoxide to give solutions at a concentration of 10 mmol/L. • 1) The example compounds were each diluted from 10 mmol/L stock solution to 0.2 mmol/L, i.e., 1 µL of the compound was added to 49 µL of DMSO; • 2) 3 µL of 0.2 mmol/L test compounds were added to 597 µL of blood plasma, and the mixtures were vortexed at 1000 rpm for 2 min; • 3) 50 µL of the plasma containing the drug in 2) was taken, 50 µL of PBS was added, and 300 µL of methanol internal standard* was added to serve as a sample T0; • 4) 120 µL of the plasma containing the drug in 2) was taken and added to one side of an HTD device membrane, and 120 µL of PBS was added to the other side of the membrane; a breathable film was covered, and the plasma and the residual sample in 2) were balanced at 37 °C (100 rpm and 5% CO2) for 6 h; • 5) 50 µL of the dialyzed plasma side sample was taken, 50 µL of PBS was added, and 300 µL of methanol internal standard* was added to serve as a sample P; • 6) 50 µL of the dialyzed PBS side sample was taken, 50 µL of blank plasma was added, and 300 µL of methanol internal standard* was added to serve as a sample B; • 7) 50 µL of the plasma containing the drug in 2) was taken, 50 µL of PBS was added, and 300 µL of methanol internal standard* was added to serve as a sample T6; • 8) All samples were vortexed, mixed homogeneously, and then centrifuged at 3220 g for 40 min at 4 °C; • 9) 100 µL of the supernatant and 100 µL of purified water were mixed homogenously for liquid chromatography-mass spectrometry.
An internal standard method was used, and the plasma protein binding rate, recovery rate, and residual percentage were calculated by using Excel according to the ratio of the peak area of the sample to the peak area of the internal standard. Free rate(%) = (RatioB)/(RatioP) × 100% [formula] Binding rate(%) = 100%−Free rate% [formula] Recovery rate(%) = (RatioB + RatioP)/(RatioT0) × 100% [formula] Remaining percentage(%) = (RatioT6)/(RatioT0) × 100% [formula]
RatioB: a ratio of the peak area of the test substance on the PBS side to the peak area of the internal standard; RatioP: a ratio of the peak area of the test substance on the plasma side to the peak area of the internal standard; RatioT6: a ratio of the peak area of the sample after incubation with the test substance for 6 h to the peak area of the internal standard; RatioT0: a ratio of the peak area of the sample after incubation with the test substance for 0 h to the peak area of the internal standard. Table 8. Plasma protein binding rate (Fu%) data for various species of example compounds

CYP1A2 = target: T1, CYP1A2 (Homo sapiens, UniProt P05177); experiment: Inhibitory effect on P450 enzymes in vitro (human liver microsomes), CYP1A2; conditions: probe phenacetin, final concentration 10 µM, substrate phenacetin, read-out: % inhibition rate CYP1A2 (phenacetin)
T1 construct: from tissue; host or cells: human liver microsomes
T1 sequence (P05177 1-516): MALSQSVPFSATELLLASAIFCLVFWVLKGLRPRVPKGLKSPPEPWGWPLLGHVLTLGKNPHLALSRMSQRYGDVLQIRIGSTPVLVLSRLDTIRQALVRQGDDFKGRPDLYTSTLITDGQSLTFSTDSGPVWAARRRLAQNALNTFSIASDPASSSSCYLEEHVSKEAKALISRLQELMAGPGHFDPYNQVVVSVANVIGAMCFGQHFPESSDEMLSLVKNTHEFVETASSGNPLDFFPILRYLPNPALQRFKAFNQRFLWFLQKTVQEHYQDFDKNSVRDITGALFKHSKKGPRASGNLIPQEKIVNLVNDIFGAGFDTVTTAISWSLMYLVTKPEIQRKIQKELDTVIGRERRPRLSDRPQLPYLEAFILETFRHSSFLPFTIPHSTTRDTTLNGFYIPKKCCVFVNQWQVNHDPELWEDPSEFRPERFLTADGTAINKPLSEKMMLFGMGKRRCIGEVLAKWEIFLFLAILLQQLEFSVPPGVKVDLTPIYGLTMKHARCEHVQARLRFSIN
Method: (§1) 1.1 Preparation of compounds: The compounds prepared in the examples were each dissolved in dimethylsulfoxide to give solutions at a concentration of 2 mmol/L.
(§2) 1.2 Test methods: • 1) Incubation system: human liver microsomes, a MgCl2 solution, a phosphate buffer solution, and a substrate solution were each added a 96-well deep-well plate and mixed homogenously. In the final incubation system, the concentration of the human liver microsomes was 0.2 mg/mL, and the final concentrations of the MgCl2 solution and the phosphate buffer solution were 5 mM and 100 mM, respectively. • 2) 1 µL of the substrate solution was added to the incubation system, and the final concentrations of CYP1A2 phenacetin, 2C8 paclitaxel […], 2C19 mephenytoin, 2D6 midazolam, and 3A midazolam substrates were 40 µM (phenacetin), 5 µM (paclitaxel), 50 µM (mephenytoin), 10 µM (mephenytoin), 5 µM (midazolam), and 50 µM […], respectively. • 3) 1 µL of the example compound or vehicle (DMSO) was added to the incubation system, and the incubation system was pre-warmed for 5 min in a 37 °C water bath before starting the reaction with 20 µL of 10 mM NADPH solution.
(§3) 1.3 Sample treatment: Within the designated time (20 min for phenacetin, 10 min for paclitaxel, 20 min for mephenytoin, 20 min for dextromethorphan, 5 min for midazolam, and 10 min for testosterone), 400 µL of methanol containing the internal standard was added to terminate the reaction, and the mixture was vortexed and mixed homogeneously. Then, the deep-well plate was centrifuged at 3220 g and 4 °C for 40 min. 100 µL of the supernatant was transferred into a new plate, and 150 µL of purified water was added. The mixture was mixed homogenously for LC-MS/MS analysis. Table 11. Inhibitory effects of some compounds in the examples on CYP enzymes

CYP2C19 = target: T2, CYP2C19 (Homo sapiens, UniProt P33261); experiment: Inhibitory effect on P450 enzymes in vitro (human liver microsomes), CYP2C19; conditions: probe mephenytoin, final concentration 10 µM, substrate mephenytoin, read-out: % inhibition rate CYP2C19 (mephenytoin)
T2 construct: from tissue; host or cells: human liver microsomes
Method: as §1, §2, §3

T2 sequence (P33261 whole entry): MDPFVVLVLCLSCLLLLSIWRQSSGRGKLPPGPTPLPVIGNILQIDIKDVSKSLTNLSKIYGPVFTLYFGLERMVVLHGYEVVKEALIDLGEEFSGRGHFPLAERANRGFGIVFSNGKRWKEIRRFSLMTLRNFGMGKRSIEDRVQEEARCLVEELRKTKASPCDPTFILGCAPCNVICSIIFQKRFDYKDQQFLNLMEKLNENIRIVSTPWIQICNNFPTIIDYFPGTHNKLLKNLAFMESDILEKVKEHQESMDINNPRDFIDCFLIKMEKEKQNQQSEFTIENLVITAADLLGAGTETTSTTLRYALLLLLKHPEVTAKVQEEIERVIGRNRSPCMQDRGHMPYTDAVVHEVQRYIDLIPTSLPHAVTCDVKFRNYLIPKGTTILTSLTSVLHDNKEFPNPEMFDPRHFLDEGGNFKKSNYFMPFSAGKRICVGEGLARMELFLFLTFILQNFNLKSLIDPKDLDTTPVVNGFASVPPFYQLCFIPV

COc1cc2c(cc1S(=O)(=O)Nc1noc3cc(Cn4cccn4)nc(OC)c13)CCCO2 [Example 76, N-(6-((1H-Pyrazol-1-yl)methyl)-4-methoxyisoxazolo[4,5-c]pyridin-3-yl)-7-methoxy-3,4-dihydro-1H-benzopyran-6-sulfonamide]
fraction unbound at 6 h, 1 µM [1]: 0.0144

COc1ccc2c(c1S(=O)(=O)Nc1noc3cc(Cn4cccn4)nc(OC)c13)OCC2 [Example 9, N-(6-((1H-Pyrazol-1-yl)methyl)-4-methoxyisoxazolo[4,5-c]pyridin-3-yl)-6-methoxy-2,3-dihydrobenzofuran-7-sulfonamide]
fraction unbound at 6 h, 1 µM [1]: 0.0257

COc1cc2c(cc1S(=O)(=O)Nc1noc3cc(Cn4cccn4)nc(OC)c13)OCC2 [Example 59, N-(6-((1H-Pyrazol-1-yl)methyl)-4-methoxyisoxazolo[4,5-c]pyridin-3-yl)-5-methoxy-2,3-dihydrobenzofuran-6-sulfonamide]
fraction unbound at 6 h, 1 µM [1]: 0.0414 | inhibition at 20 min, 10 µM (CYP1A2): 1.93% | inhibition at 20 min, 10 µM (CYP2C19): 7.62%

COc1ccc2ccoc2c1S(=O)(=O)Nc1noc2cc(Cn3cccn3)nc(OC)c12 [Example 10, N-(6-((1H-Pyrazol-1-yl)methyl)-4-methoxyisoxazolo[4,5-c]pyridin-3-yl)-6-methoxybenzofuran-7-sulfonamide]
fraction unbound at 6 h, 1 µM [1]: 0.0132 | inhibition at 20 min, 10 µM (CYP1A2): -1.78% | inhibition at 20 min, 10 µM (CYP2C19): 9.54%

COc1cc2c(cc1S(=O)(=O)Nc1noc3cc(Cn4cccn4)nc(OC)c13)CCCC2 [Example 2, N-(6-((1H-Pyrazol-1-yl)methyl)-4-methoxyisoxazolo[4,5-c]pyridin-3-yl)-3-methoxy-5,6,7,8-tetrahydronaphthalene-2-sulfonamide]
fraction unbound at 6 h, 1 µM [1]: 0.0167 | inhibition at 20 min, 10 µM (CYP1A2): 6.02% | inhibition at 20 min, 10 µM (CYP2C19): 42.8%
